# Test results published in patent US20250186541A1, “DLL3 TARGETING PEPTIDES AND CONSTRUCTS THEREOF” (MARIANA ONCOLOGY INC., priority 2023, published 2025).
# Numbered stars: 1 amine (or outer) side, 2 acyl side, 3 side chain; on linkers, the order of the positions; unused ones are H or OH. Bridge positions count the residues as written; N and C are the ends. Square brackets hold non-standard residues; d marks the D form. Side chains are listed from the residue outwards. Peptide text beside a SMILES is read from it. * marks the point of attachment. ξ: configuration not given here. Ala(piperidin-4-yl) = O=C([C@H](CC1CCN([*:3])CC1)N[*:1])[*:2]; DOTA = O=C(O)CN1CCN(CC(=O)O)CCN(CC(=O)*)CCN(CC(=O)O)CC1; X3 = O=C([C@H](Cc1ccccc1CN[*:3])N[*:1])[*:2]; 1Nal = N[C@@H](Cc1cccc2ccccc12)C(=O)O; 2Nal = N[C@@H](Cc1ccc2ccccc2c1)C(=O)O; Phe(2-Me) = Cc1ccccc1C[C@H](N)C(=O)O; ξγGlu = O=C(O)C(CCC(=O)[*:2])N[*:1]; tBuAla = CC(C)(C)C[C@H](N)C(=O)O; NMeD = CN[C@@H](CC(=O)O)C(=O)O; AllylGly = C=CC[C@H](N)C(=O)O; Chg = N[C@H](C(=O)O)C1CCCCC1; Pen = CC(C)(S)[C@H](N)C(=O)O; αMeP = C[C@@]1(C(=O)O)CCCN1; αMeS = C[C@](N)(CO)C(=O)O; Ahx = NCCCCCC(=O)O
# Biological target: T1, human DLL3 (Homo sapiens, UniProt Q9NYJ7)
# T1 construct: biotin (biotinylated)
# T1 sequence (Q9NYJ7 27-618): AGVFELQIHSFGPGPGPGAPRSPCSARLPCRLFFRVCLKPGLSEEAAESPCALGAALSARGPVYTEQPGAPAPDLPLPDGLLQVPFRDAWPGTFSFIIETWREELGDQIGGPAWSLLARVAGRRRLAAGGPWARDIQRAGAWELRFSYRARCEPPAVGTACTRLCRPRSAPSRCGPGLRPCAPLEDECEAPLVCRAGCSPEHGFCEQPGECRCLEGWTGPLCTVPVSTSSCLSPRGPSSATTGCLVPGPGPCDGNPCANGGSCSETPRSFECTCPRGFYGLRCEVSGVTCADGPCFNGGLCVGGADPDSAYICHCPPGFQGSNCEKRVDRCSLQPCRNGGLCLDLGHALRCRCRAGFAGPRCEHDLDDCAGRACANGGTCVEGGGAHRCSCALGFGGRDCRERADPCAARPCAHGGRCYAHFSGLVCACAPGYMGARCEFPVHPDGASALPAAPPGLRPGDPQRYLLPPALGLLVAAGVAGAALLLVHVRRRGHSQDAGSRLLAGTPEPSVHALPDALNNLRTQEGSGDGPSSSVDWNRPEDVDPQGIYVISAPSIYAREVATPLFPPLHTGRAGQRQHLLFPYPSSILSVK
# Assay: Affinity determination by Surface Plasmon Resonance (SPR), Biacore, 1:1 binding model
# Conditions: biotinylated human DLL3 on streptavidin chip, 25° C.; NB = nonbinding
# How it was run: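 SPR with biotinylated human DLL3 captured on a streptavidin chip, with a reference surface subtracted. Samples were injected at several concentrations at 100 μL/min in phosphate buffer with 137 mM NaCl, 2.7 mM KCl, 0.05% P20 and 2% DMSO. Kinetic and affinity constants came from a 1:1 binding fit.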
row,Kd,Compound
1,0.29 nM,"CC(=O)N[C@H](C)C(=O)N[C@@H](CO)C(=O)N[C@@H](CC(=O)O)C(=O)N[C@H]1CSSC[C@@H](C(=O)N2CCC[C@@]2(C)C(=O)N[C@@H](Cc2ccccc2)C(=O)N[C@@H](CC(=O)O)C(=O)N[C@H](CCCCNC(=O)CN2CCN(CC(=O)O)CCN(CC(=O)O)CCN(CC(=O)O)CC2)C(N)=O)NC(=O)[C@H](CC(N)=O)NC(=O)[C@H](Cc2ccc3ccccc3c2)NC(=O)[C@H](CC2CCNCC2)NC(=O)[C@H](CC(C)(C)C)NC(=O)[C@H](Cc2cccc3ccccc23)NC1=O [compound 146, Ac-(D-Ala)-S-D-C(3)-(1Nal)-(t-Bu-Ala)-[3-(4-piperidinyl)-Ala]-(2Nal)-N-C(3)-(aMe-P)-F -D-D-Lys(DOTA)-CONH2] (Ac-[dA]SDC[1Nal][tBuAla][Ala(piperidin-4-yl)][2Nal]NC[αMeP]FD[dK](DOTA)-NH2; disulfide 4-10)"
2,0.29 nM,"CC(=O)N[C@H](C(=O)N[C@@H](CO)C(=O)N[C@@H](CC(=O)O)C(=O)N[C@H]1CSSC[C@@H](C(=O)N2CCC[C@@]2(C)C(=O)N[C@@H](Cc2ccccc2)C(=O)N[C@@H](CC(=O)O)C(=O)N[C@H](CCCCNC(=O)CN2CCN(CC(=O)O)CCN(CC(=O)O)CCN(CC(=O)O)CC2)C(N)=O)NC(=O)[C@H](CC(N)=O)NC(=O)[C@H](Cc2ccc3ccccc3c2)NC(=O)[C@H](CCC(N)=O)NC(=O)[C@H](CC(C)(C)C)NC(=O)[C@H](Cc2cccc3ccccc23)NC1=O)C1CCCCC1 [compound 148, Ac-(Chg)-S-D-C(3)-(1Nal)-(t-Bu-Ala)-Q-(2Nal)-N-C(3)-(aMe-P)-F -D-D-Lys(DOTA)-CONH2] (Ac-[Chg]SDC[1Nal][tBuAla]Q[2Nal]NC[αMeP]FD[dK](DOTA)-NH2; disulfide 4-10)"
3,> 30 nM,"CC(=O)N[C@H](C)C(=O)N[C@@H](CO)C(=O)N[C@@H](CC(=O)O)C(=O)N[C@H]1CSSC[C@@H](C(=O)N2CCC[C@@]2(C)C(=O)N[C@@H](Cc2ccccc2)C(=O)N(C)[C@@H](CC(=O)O)C(=O)N[C@H](CCCCNC(=O)CN2CCN(CC(=O)O)CCN(CC(=O)O)CCN(CC(=O)O)CC2)C(=O)O)NC(=O)[C@H](CC(N)=O)NC(=O)[C@H](Cc2ccc3ccccc3c2)NC(=O)[C@H](CCC(N)=O)NC(=O)[C@H](CC(C)(C)C)NC(=O)[C@H](Cc2cccc3ccccc23)NC1=O [compound 149, Ac-(D-Ala)-S-D-C(3)-(1Nal)-(t-Bu-Ala)-Q-(2Nal)-N-C(3)-(aMe-P)-F-(NMe-D)-D-Lys(DOTA)-CONH2] (Ac-[dA]SDC[1Nal][tBuAla]Q[2Nal]NC[αMeP]F[NMeD][dK](DOTA)-OH; disulfide 4-10)"
4,0.24 nM,"CC(=O)N[C@H](C)C(=O)N[C@@H](CO)C(=O)N[C@@H](CC(=O)O)C(=O)N[C@H]1C/C=C/C[C@@H](C(=O)N2CCC[C@@]2(C)C(=O)N[C@@H](Cc2ccccc2)C(=O)N[C@@H](CC(=O)O)C(=O)N[C@H](CCCCNC(=O)CN2CCN(CC(=O)O)CCN(CC(=O)O)CCN(CC(=O)O)CC2)C(N)=O)NC(=O)[C@H](CC(N)=O)NC(=O)[C@H](Cc2ccc3ccccc3c2)NC(=O)[C@H](CCC(N)=O)NC(=O)[C@H](CC(C)(C)C)NC(=O)[C@H](Cc2cccc3ccccc23)NC1=O [compound 161, Ac-(D-Ala)-S-D-AllyG(4)-(1Nal)-(t-Bu-Ala)-Q-(2Nal)-N-AllyG(4)-(aMe-P)-F -D-D-Lys(DOTA)-CONH2] (Ac-[dA]SD[AllylGly][1Nal][tBuAla]Q[2Nal]N[AllylGly][αMeP]FD[dK](DOTA)-NH2; staple (E) 4-10)"
5,224 nM,"CC(=O)N[C@H](C)C(=O)N[C@@H](CO)C(=O)N[C@@H](CC(=O)O)C(=O)N[C@@H]1C(=O)N[C@@H](Cc2cccc3ccccc23)C(=O)N[C@@H](CC(C)(C)C)C(=O)N[C@@H](CCC(N)=O)C(=O)N[C@@H](Cc2ccc3ccccc3c2)C(=O)N[C@@H](CC(N)=O)C(=O)N[C@H](C(=O)N2CCC[C@@]2(C)C(=O)N[C@@H](Cc2ccccc2)C(=O)N[C@@H](CC(=O)O)C(=O)N[C@H](CCCCNC(=O)CN2CCN(CC(=O)O)CCN(CC(=O)O)CCN(CC(=O)O)CC2)C(N)=O)CSSC1(C)C [compound 162, Ac-(D-Ala)-S-D-Pen(3)-(1Nal)-(t-Bu-Ala)-Q-(2Nal)-N-C(3)-(aMe-P)-F -D-D-Lys(DOTA)-CONH2] (Ac-[dA]SD[Pen][1Nal][tBuAla]Q[2Nal]NC[αMeP]FD[dK](DOTA)-NH2; disulfide 4-10)"
6,0.094 nM,"CC(=O)N[C@H](C)C(=O)N[C@@H](CO)C(=O)N[C@@H](CC(=O)O)C(=O)N[C@H]1CSSC[C@@H](C(=O)N2CCC[C@@]2(C)C(=O)N[C@@H](Cc2ccccc2)C(=O)N[C@@H](CC(=O)O)C(=O)N[C@H](CCCCNC(=O)CN2CCN(CC(=O)O)CCN(CC(=O)O)CCN(CC(=O)O)CC2)C(N)=O)NC(=O)[C@H](CC(N)=O)NC(=O)[C@H](Cc2ccc3ccccc3c2)NC(=O)[C@H](C)NC(=O)[C@H](CC(C)(C)C)NC(=O)[C@H](Cc2cccc3ccccc23)NC1=O [compound 165, Ac-(D-Ala)-S-D-C(3)-(1Nal)-(t-Bu-Ala)-Ala-(2Nal)-N-C(3)-(aMe-P)-F-D-[D-Lys(DOTA)]-NH2] (Ac-[dA]SDC[1Nal][tBuAla]A[2Nal]NC[αMeP]FD[dK](DOTA)-NH2; disulfide 4-10)"
7,0.24 nM,"CC(=O)N[C@H](C)C(=O)N[C@@](C)(CO)C(=O)N[C@@H](CC(=O)O)C(=O)N[C@H]1CSSC[C@@H](C(=O)N2CCC[C@@]2(C)C(=O)N[C@@H](Cc2ccccc2)C(=O)N[C@@H](CC(=O)O)C(=O)N[C@H](CCCCNC(=O)CN2CCN(CC(=O)O)CCN(CC(=O)O)CCN(CC(=O)O)CC2)C(N)=O)NC(=O)[C@H](CC(N)=O)NC(=O)[C@H](Cc2ccc3ccccc3c2)NC(=O)[C@H](CCC(N)=O)NC(=O)[C@H](CC(C)(C)C)NC(=O)[C@H](Cc2cccc3ccccc23)NC1=O [compound 167, Ac-(D-Ala)-(aMe-Ser)-D-C(3)-(1Nal)-(t-Bu-Ala)-Q-(2Nal)-N-C(3)-(aMe-P)-F-D-[D-Lys(DOTA)]-NH2] (Ac-[dA][αMeS]DC[1Nal][tBuAla]Q[2Nal]NC[αMeP]FD[dK](DOTA)-NH2; disulfide 4-10)"

# More lines, now with the values behind:
row,Compound,Kd
1,"CC(=O)N[C@H](C)C(=O)N[C@@H](CO)C(=O)N[C@@H](CC(=O)O)C(=O)N[C@H]1CSSC[C@@H](C(=O)N2CCC[C@@]2(C)C(=O)N[C@@H](Cc2ccccc2C)C(=O)N[C@@H](CC(=O)O)C(N)=O)NC(=O)[C@H](CC(N)=O)NC(=O)[C@H](Cc2ccc3ccccc3c2)NC(=O)[C@H](CCCCNC(=O)CCC(NC(=O)CN2CCN(CC(=O)O)CCN(CC(=O)O)CCN(CC(=O)O)CC2)C(=O)O)NC(=O)[C@H](CC(C)(C)C)NC(=O)[C@H](Cc2cccc3ccccc23)NC1=O (stereo partly drawn) [compound 152, Ac-(D-Ala)-S-D-C(3)-(1Nal)-(t-Bu-Ala)-[L-Lys(yE-DOTA)]-(2Nal)-N-C(3)-(aMe-P)-(2Me-F)-D-CONH2] (Ac-[dA]SDC[1Nal][tBuAla]K([ξγGlu-DOTA])[2Nal]NC[αMeP][Phe(2-Me)]D-NH2; disulfide 4-10)",0.51 nM
2,"Cc1ccccc1C[C@H](NC(=O)[C@]1(C)CCCN1C(=O)[C@@H]1CSSC[C@H](NC(=O)[C@H](CC(=O)O)NC(=O)[C@H](CO)NC(=O)CCCCCNC(=O)CN2CCN(CC(=O)O)CCN(CC(=O)O)CCN(CC(=O)O)CC2)C(=O)N[C@@H](Cc2cccc3ccccc23)C(=O)N[C@@H](CC(C)(C)C)C(=O)N[C@@H](CCC(N)=O)C(=O)N[C@@H](Cc2ccc3ccccc3c2)C(=O)N[C@@H](CC(N)=O)C(=O)N1)C(=O)N[C@@H](CC(=O)O)C(N)=O [compound 155, DOTA-Ahx-S-D-C(3)-(1Nal)-(t-Bu-Ala)-Q-(2Nal)-N-C(3)-(aMe-P)-(2Me-F)-D-CONH2] ({DOTA-Ahx}-SDC[1Nal][tBuAla]Q[2Nal]NC[αMeP][Phe(2-Me)]D-NH2; disulfide 3-9)",0.11 nM
3,"CC(C)(C)C[C@@H]1NC(=O)[C@H](Cc2cccc3ccccc23)NC(=O)[C@@H](NC(=O)[C@H](CC(=O)O)NC(=O)[C@H](CO)NC(=O)CCCCCNC(=O)CN2CCN(CC(=O)O)CCN(CC(=O)O)CCN(CC(=O)O)CC2)CSSC[C@@H](C(=O)N2CCC[C@@]2(C)C(=O)N[C@@H](Cc2ccccc2)C(=O)N[C@@H](CC(=O)O)C(=O)O)NC(=O)[C@H](CC(N)=O)NC(=O)[C@H](Cc2ccc3ccccc3c2)NC(=O)[C@H](CCC(N)=O)NC1=O [compound 156, DOTA-Ahx-S-D-C(3)-(1Nal)-(t-Bu-Ala)-Q-(2Nal)-N-C(3)-(aMe-P)-F -D-COOH] ({DOTA-Ahx}-SDC[1Nal][tBuAla]Q[2Nal]NC[αMeP]FD-OH; disulfide 3-9)",0.11 nM
4,"CC(=O)N[C@H](C)C(=O)N[C@@H](CO)C(=O)N[C@@H](CC(=O)O)C(=O)N[C@H]1CSSC[C@@H](C(=O)N2CCC[C@@]2(C)C(=O)N[C@@H](Cc2ccccc2CNC(=O)CN2CCN(CC(=O)O)CCN(CC(=O)O)CCN(CC(=O)O)CC2)C(=O)N[C@@H](CC(=O)O)C(N)=O)NC(=O)[C@H](CC(N)=O)NC(=O)[C@H](Cc2ccc3ccccc3c2)NC(=O)[C@H](CCC(N)=O)NC(=O)[C@H](CC(C)(C)C)NC(=O)[C@H](Cc2cccc3ccccc23)NC1=O [compound 159, Ac-(D-Ala)-S-D-C(3)-(1Nal)-(t-Bu-Ala)-Q-(2Nal)-N-C(3)-(aMe-P)-[OAF(DOTA)]-D-CONH2] (Ac-[dA]SDC[1Nal][tBuAla]Q[2Nal]NC[αMeP][X3](DOTA)D-NH2; disulfide 4-10)",> 30 nM
